Test results reported in patent US20260265259A1, “SUBSTITUTED 6-IMIDAZOPYRIDAZINE IL-17A MODULATORS AND USES THEREOF” (DICE ALPHA, INC., priority 2023, published 2026).

Tested on: IL-17A/A
Test: IL-17A/A HEK-Blue cell assay
Type: cell-based
Conditions: HEK-Blue, 20 h, IL-17A/A inhibition, HEK-Blue IL-17A reporter cell line, IL17A/A 5 ng/mL, SEAP read at A630, read-out: AA IC50
In short: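 HEK 293 reporter cells expressing IL-17RA, IL-17RC and Act1, stimulated with 5 ng/mL IL17A/A or IL17A/F for 20 h alongside compound (10 μM to 27 pM, 0.1% DMSO). NFκB-driven SEAP in the medium read at A630 with Quanti-Blue; IC50 from 4-parameter fit.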

| IC50 | Structure (SMILES) |
| --- | --- |
| < 100 nM | CCn1nccc1C(=O)N[C@H](c1cn2nc(C[C@H]3C[C@@H](C(F)(F)F)CNC3=O)c(CN(C)C3COC3)cc2n1)C1CCC(F)(F)CC1 [Compound 114, N—((S)-(4,4-difluorocyclohexyl)(7-((methyl(oxetan-3-yl)amino)methyl)-6-(((3R,5R)-2-oxo-5-(trifluoromethyl)piperidin-3-yl)methyl)imidazo[1,2-b]pyridazin-2-yl)methyl)-1-ethyl-1H-pyrazole-5-carboxamide] |
| < 100 nM | CCn1nccc1C(=O)N[C@H](c1cn2nc(C[C@H]3C[C@@H](C(F)(F)F)CNC3=O)c(CNCC(F)(F)F)cc2n1)C1CCC(F)(F)CC1 [Compound 115, N—((S)-(4,4-difluorocyclohexyl)(6-(((3R,5R)-2-oxo-5-(trifluoromethyl)piperidin-3-yl)methyl)-7-(((2,2,2-trifluoroethyl)amino)methyl)imidazo[1,2-b]pyridazin-2-yl)methyl)-1-ethyl-1H-pyrazole-5-carboxamide] |
| < 100 nM | CCn1nccc1C(=O)N[C@H](c1cn2nc(C[C@H]3C[C@@H](C(F)(F)F)CNC3=O)c(CN(C)CC(F)(F)F)cc2n1)C1CCC(F)(F)CC1 [Compound 116, N—((S)-(4,4-difluorocyclohexyl)(7-((methyl(2,2,2-trifluoroethyl)amino)methyl)-6-(((3R,5R)-2-oxo-5-(trifluoromethyl)piperidin-3-yl)methyl)imidazo[1,2-b]pyridazin-2-yl)methyl)-1-ethyl-1H-pyrazole-5-carboxamide] |

Second part, the compound before the results:

| Structure (SMILES) | IC50 |
| --- | --- |
| CCn1nccc1C(=O)N[C@H](c1cn2nc(C[C@H]3C[C@@H](C(F)(F)F)CNC3=O)c(CN(CC(F)(F)F)C3CC3)cc2n1)C1CCC(F)(F)CC1 [Compound 117, N—((S)-(7-((cyclopropyl(2,2,2-trifluoroethyl)amino)methyl)-6-(((3R,5R)-2-oxo-5-(trifluoromethyl)piperidin-3-yl)methyl)imidazo[1,2-b]pyridazin-2-yl)(4,4-difluorocyclohexyl)methyl)-1-ethyl-/H-pyrazole-5-carboxamide] | < 100 nM |
| CCn1nccc1C(=O)N[C@H](c1cn2nc(C[C@H]3C[C@@H](C(F)(F)F)CNC3=O)c(C3CCS(=O)(=O)CC3)cc2n1)C1CCC(F)(F)CC1 [Compound 118, N—((S)-(4,4-difluorocyclohexyl)(7-(1,1-dioxidotetrahydro-2H-thiopyran-4-yl)-6-(((3R,5R)-2-oxo-5-(trifluoromethyl)piperidin-3-yl)methyl)imidazo[1,2-b]pyridazin-2-yl)methyl)-1-ethyl-1H-pyrazole-5-carboxamide] | < 100 nM |
